Patent US20150335055A1, “BEVERAGE PR[…] BASED ON PIMARICIN AND HEADSPACE GAS” (PEPSICO, INC., priority 2013, published 2015)

Columns and labels:
[1] = test system: pooled inoculum of strains of Saccharomyces Brettanomyces and Zygosaccharomyces; test: 16 week spoilage trial in carbonated mock grape beverage (3.7 and 4.5 volumes CO2), Example 1; format: cell-based; details: 1.1 ppm pimaricin, no cyclodextrin; for first note of spoilage: 25° C.; for incidence of spoilage (frequency, 1=100%): after 100 days
Procedure: A 16 week trial was conducted with a mock grape 12 Brix 2% grape juice mock glass “pony” 9.8 oz. bottle. Beverages were carbonated to 3.7 and 4.5 volumes. Five containers of each CO2 level were not inoculated and served as negative controls. Five containers of each CO2 level were inoculated with a pooled inoculum of strains of Saccharomyces Brettanomyces and Zygosaccharomyces such that an initial cell density of 100 organisms per milliliter was achieved. These samples served as positive controls. Half of the remaining containers received the same inoculum and were also dosed with pimaricin to a concentration of 1.1 mg 1^−1 (mg per liter or mg/L). The remaining containers were dosed with pimaricin in complex with β-cyclodextrin in a manner that yielded a final concentration of pimaricin of 0.8 ppm. All samples were then held at 25° C. for the duration of the study. During the course of the study, pimaricin concentration was established in samples employing UV-Visible spectroscopy.

[2] = Solubility of pimaricin in aqueous solution; format: physicochemical
[3] = short exposures; cited from earlier work
[4] = Pimaricin concentration over time in Example 1 samples by UV-Visible spectroscopy; format: physicochemical; details: pimaricin in the absence of cyclodextrin; initial 1.1 ppm; carbonated mock grape beverage, 25° C.
Description: Such reactions are a consequence of the formation of reactive oxygen species (ROS) wherein oxygen merely serves as an intermediate in the transfer of electrons in REDOX type reactions which ultimately result in the degradation of more complex molecules such as pimaricin. In this regard, O2 behaves similar to a catalyst. Similar to many reactions involving catalyst, the amount of oxygen required to drive in such reactions is very small. In this regard, it is of interest to evaluate the stability of pimaricin in solution under differing conditions of oxygen tension. Clearly, it is also of interest to establish whether the formation of a complex between pimaricin and β-cyclodextrin serves to stabilize pimaricin from degradation by reaction with oxygen. […] Briefly, pimaricin yields a very distinctive UV-visible spectrum with 3 separate absorption maxima. As pimaricin degrades, the peak heights diminish. Degradation can be tracked through the diminishing peak height of any single peak maxima or through changes in relative peak height.
A 16 week trial was conducted with a mock grape 12 Brix 2% grape juice mock glass “pony” 9.8 oz. bottle. Beverages were carbonated to 3.7 and 4.5 volumes. Five containers of each CO2 level were not inoculated and served as negative controls. […]

[5] = test system: spoilage organisms; test: Degradation kinetic of pimaricin and onset of spoilage in carbonated beverage (Background Example 4); format: cell-based
Description: In the absence of analytical data about the stability of pimaricin in solution, the interpretation of the data about the stability of product over time can be interpreted in one of two ways. Either no degradation of pimaricin occurred and product spoiled because of the outgrowth of those few organisms that were tolerant to the quantity of pimaricin present or spoilage occurred as a consequence of the survival and then outgrowth of organisms as a consequence of the degradation of pimaricin below some critical concentration. A strong argument for the latter is offered in Background Example 4, FIG. 4. Herein, the degradation of pimaricin is tracked from initial concentrations of 13 and 25 ppm in parallel with previously established incidence of spoilage in samples that initially contain 13 and 25 ppm. […] Product contains in excess of 2000 ppb O2.
In the presence of structurally intact pimaricin, spoilage organisms are inhibited from growth. Once the integrity of the bulk pimaricin is compromised, the organisms are able to grow. Regardless of initial concentration, pimaricin in 3.7 volume CO2 beverage will degrade at the same rate. Commonly, carbonated beverages contain a substantial amount of oxygen (>3500 ppb). Given a starting concentration of 13.5 ppm, the degradation of pimaricin is such that the concentration of pimaricin falls to below the minimum inhibitory concentration ( . . . ) at around 80 days. At this time, spoilage organisms begin to grow and induce spoilage (χ).

In the case of “(IR,3S,5R,7R,8E,12R,14E,16E,18E,20E,22R,24S,25R,26S)-{[3S,4S,5S,6R)-4-amino-3,5-dihydroxy-6-methyloxan-2-yl]oxy}-1,3,26 trihydroxy-12-methyl-10-oxo-6,11,28-trioxatricyclo[22.3.1.0^5,7]octacosa-8,14,16,18,20 pentaene-25-carboxylic acid [pimaricin]”, the “first note of spoilage” value ([1]; 3.7 volumes CO2) is reported as 20 days, the “first note of spoilage” value ([1]; 4.5 volumes CO2) is reported as 20 days and the “incidence of spoilage (frequency, 1=100%)” value ([1]; 3.7 volumes CO2) is reported as 0.6. For the same substance, the “incidence of spoilage (frequency, 1=100%)” value ([1]; 4.5 volumes CO2) was 0.6, the “normal limit of solubility” value ([2]; beverage of acid pH, 25° C.) was 20-25 ppm and the limit of solubility ([2]; high acid beverage) was 25 ppm. For the same substance, the “limit of solubility in aqueous solution” value ([2]; in the absence of β-cyclodextrin) was 20-25 mg 1^−1, the “temperature to which antimicrobial activity is stable” value [3] was ≥ 120 ° F and the half-life of degradation [4] was “about 35 days”. The “critical concentration of pimaricin (no spoilage above it)” value ([5]; 3.7 volume CO2 beverage) was “about 2 ppm”, the “incubation time before spoilage” value ([5]; initial concentration 13 ppm pimaricin, carbonated beverage 3.6 volumes CO2) was > 80 days and the incidence of spoilage ([5]; initial concentration 13 ppm pimaricin, carbonated beverage 3.6 volumes CO2, in excess of 2000 ppb O2) was 33%. The “pimaricin concentration below which spoilage ensues” value ([5]; intersect of time of onset of spoilage and degradation plot for 13 ppm pimaricin) was 1.5-2 ppm, the “spoilage among samples evaluated” value ([5]; product containing 25 ppm pimaricin, carbonated beverage 3.6 volumes CO2) was “did not suffer any spoilage” and the “time at which pimaricin concentration falls below the minimum inhibitory concentration” value ([5]; starting concentration 13.5 ppm, 3.7 volume CO2 beverage) was “around 80 days”. For the same substance, the “spoilage from outgrowth of previously inoculated organisms” value ([5]; starting concentration 25 ppm pimaricin, 3.7 volume CO2 beverage) was “no ensuing spoilage”.
